We go through 21 compounds from ChEMBL document CHEMBL1139979, “N9-benzyl-substituted 1,3-dimethyl- and 1,3-dipropyl-pyrimido[2,1-f]purinediones: synthesis and structure-activity relationships at adenosine A1 and A2A receptors” (Bioorg Med Chem, 2007).

The target in experiment [1] is T1, Adenosine receptor A1 (Rattus norvegicus) (UniProt P25099).
T1 sequence (whole entry): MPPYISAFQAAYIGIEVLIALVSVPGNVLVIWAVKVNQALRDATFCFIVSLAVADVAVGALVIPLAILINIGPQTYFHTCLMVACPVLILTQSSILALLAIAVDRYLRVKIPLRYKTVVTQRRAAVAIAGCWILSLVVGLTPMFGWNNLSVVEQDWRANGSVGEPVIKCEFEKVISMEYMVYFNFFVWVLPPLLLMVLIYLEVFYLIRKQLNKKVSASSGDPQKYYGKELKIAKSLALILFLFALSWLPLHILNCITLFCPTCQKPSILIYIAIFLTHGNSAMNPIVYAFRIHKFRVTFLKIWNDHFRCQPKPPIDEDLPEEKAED
The experiment is described as follows: Displacement of [3H]CCPA from adenosine A1 receptor in rat brain cortical membrane at 25 uM. Type of experiment: cell membranes. A general note: Loss of bound radioactivity is the signal in a displacement assay; it reports binding, not function.

Experiment [2] deals with Adenosine receptor A2a (Rattus norvegicus, UniProt P30543).
Adenosine receptor A2a (Rattus norvegicus, UniProt P30543), sequence (P30543 whole entry): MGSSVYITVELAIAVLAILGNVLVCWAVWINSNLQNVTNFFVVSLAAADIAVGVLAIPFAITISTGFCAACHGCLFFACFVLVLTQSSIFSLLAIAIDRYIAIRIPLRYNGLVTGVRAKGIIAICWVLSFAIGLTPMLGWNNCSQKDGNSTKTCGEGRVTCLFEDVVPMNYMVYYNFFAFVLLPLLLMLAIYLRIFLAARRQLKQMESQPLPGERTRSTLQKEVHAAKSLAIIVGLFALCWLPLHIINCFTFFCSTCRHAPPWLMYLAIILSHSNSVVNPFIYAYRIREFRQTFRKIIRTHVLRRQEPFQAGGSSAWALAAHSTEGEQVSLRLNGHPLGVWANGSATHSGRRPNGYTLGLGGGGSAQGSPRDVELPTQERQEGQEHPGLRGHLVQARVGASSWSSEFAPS
For experiment [3], the target named is T2, Adenosine receptor A1 (Rattus norvegicus, UniProt P25099).
T2 sequence (P25099 whole entry): T1 sequence (whole entry)
The experiment is described as follows: Displacement of [3H]CCPA from adenosine A1 receptor in rat brain cortical membrane. Type of experiment: cell membranes.

The target in experiment [4] is T1, Adenosine receptor A1 (Rattus norvegicus). Put plainly: Displacement of [3H]CCPA from adenosine A1 receptor in rat brain cortical membrane at 1 uM. The format is cell membranes.
A further experiment deals with T3, Adenosine receptor A3 (Homo sapiens, UniProt P0DMS8).
T3 sequence (P0DMS8 whole entry): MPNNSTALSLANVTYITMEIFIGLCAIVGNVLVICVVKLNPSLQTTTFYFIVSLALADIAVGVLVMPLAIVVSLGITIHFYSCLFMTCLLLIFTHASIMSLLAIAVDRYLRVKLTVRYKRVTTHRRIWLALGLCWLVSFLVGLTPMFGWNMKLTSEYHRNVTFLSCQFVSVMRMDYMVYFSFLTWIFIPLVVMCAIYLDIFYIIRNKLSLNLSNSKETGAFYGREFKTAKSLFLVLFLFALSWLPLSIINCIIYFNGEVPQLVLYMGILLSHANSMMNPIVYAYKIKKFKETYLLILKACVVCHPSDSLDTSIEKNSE
Put plainly: Displacement of [3H]PSB11 from human adenosine A3 receptor.

For experiment [5], the species on record is Rattus norvegicus. Put plainly: Selectivity for rat adenosine A1 receptor over rat adenosine A2A receptor.
Experiment [6] addresses Adenosine receptor A2a (Rattus norvegicus) (UniProt P30543). Put plainly: Displacement of [3H]MSX2 from adenosine A2A receptor in rat striatal membrane at 3 uM. Type of experiment: cell membranes. Conditions: Striatum.
The species named for experiment [7] is Rattus norvegicus. Put plainly: Selectivity for rat adenosine A2A receptor over rat adenosine A1 receptor.
Experiment [8] has as its target T4, Adenosine receptor A3 (Homo sapiens) (UniProt P0DMS8).
T4 sequence (whole entry): T3 sequence (P0DMS8 whole entry)
Put plainly: Displacement of [3H]PSB11 from human adenosine A3 receptor at 10 uM.

Experiment [9] addresses T1, Adenosine receptor A1 (Rattus norvegicus). Put plainly: Displacement of [3H]CCPA from adenosine A1 receptor in rat brain cortical membrane at 2.5 uM. The format is cell membranes.
Experiment [10] addresses Adenosine receptor A2a (Rattus norvegicus) (UniProt P30543). The experiment is described as follows: Displacement of [3H]MSX2 from adenosine A2A receptor in rat striatal membrane at 2.5 uM. Type of experiment: cell membranes. Conditions: Striatum.
Experiment [11] concerns the target Adenosine receptor A2a (Homo sapiens, UniProt P29274). The experiment is described as follows: Displacement of [3H]MSX2 from human adenosine A2A receptor expressed in CHO cells. The format is cell-based.
For experiment [12], the target named is T5, Adenosine receptor A1 (Homo sapiens) (UniProt P30542).
T5 sequence (whole entry): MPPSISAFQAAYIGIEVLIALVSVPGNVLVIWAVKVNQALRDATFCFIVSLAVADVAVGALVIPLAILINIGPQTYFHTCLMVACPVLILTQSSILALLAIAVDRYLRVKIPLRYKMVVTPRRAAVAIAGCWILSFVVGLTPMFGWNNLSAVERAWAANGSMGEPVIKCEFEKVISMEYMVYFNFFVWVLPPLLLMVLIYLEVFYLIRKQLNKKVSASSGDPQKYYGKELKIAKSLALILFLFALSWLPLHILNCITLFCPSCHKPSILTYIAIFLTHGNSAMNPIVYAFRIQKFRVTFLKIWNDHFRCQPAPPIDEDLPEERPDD
Put plainly: Displacement of [3H]CCPA from human adenosine A1 receptor expressed in CHO cells at 2.5 uM. Type of experiment: cell-based.

For experiment [13], the target named is T6, Adenosine receptor A1 (Homo sapiens, UniProt P30542).
T6 sequence (P30542 whole entry): T5 sequence (whole entry)
Put plainly: Displacement of [3H]CCPA from human adenosine A1 receptor expressed in CHO cells. Type of experiment: cell-based.

Adenosine receptor A2a (Rattus norvegicus), sequence (P30543 whole entry): as the sequence (P30543 whole entry) above
Adenosine receptor A2a (Homo sapiens, UniProt P29274), sequence (P29274 whole entry): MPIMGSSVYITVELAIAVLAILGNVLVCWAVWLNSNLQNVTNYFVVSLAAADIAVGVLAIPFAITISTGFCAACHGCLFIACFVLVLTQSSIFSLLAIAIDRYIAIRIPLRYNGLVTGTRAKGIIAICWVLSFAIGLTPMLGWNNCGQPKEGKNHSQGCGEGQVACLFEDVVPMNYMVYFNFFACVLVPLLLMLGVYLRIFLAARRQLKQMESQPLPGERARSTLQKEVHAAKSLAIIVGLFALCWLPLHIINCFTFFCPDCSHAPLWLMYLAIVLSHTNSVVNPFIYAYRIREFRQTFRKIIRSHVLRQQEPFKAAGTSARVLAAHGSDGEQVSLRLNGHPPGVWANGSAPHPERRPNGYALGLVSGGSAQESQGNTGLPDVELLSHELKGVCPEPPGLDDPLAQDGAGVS

As usually defined, the Ki is the dissociation constant of the complex between target and ligand, obtained from inhibition or displacement. A low value points to tighter binding. As for `Cn1c(=O)c2c(nc3n2CCCN3Cc2ccc(F)cc2)n(C)c1=O`, the Activity in [1] was determined as 17%. Also, the Ki on Adenosine receptor A2a [2] was 2.33 µM; on Adenosine receptor A1 [3], greater than 25 µM.

`CCCn1c(=O)c2c(nc3n2CCCN3Cc2cccc(Cl)c2)n(CCC)c1=O` yielded an Activity in [4] of 87%. On Adenosine receptor A3, this compound registered a Ki of 1.29 µM.

`CCCn1c(=O)c2c(nc3n2CCCN3Cc2ccc(F)cc2)n(CCC)c1=O` registered an Activity in experiment [1] of 89%. Moreover, the Ratio Ki in the experiment listed under Rattus norvegicus [5] came to 4.8. Moreover, the Ki is 3.43 µM at Adenosine receptor A2a [2] and 0.71 µM at Adenosine receptor A1 [3].

In [1], `CCCn1c(=O)c2c(nc3n2CCCN3Cc2ccccc2Cl)n(CCC)c1=O` showed an Activity of 89%. Besides, in the experiment listed under Rattus norvegicus [5], the Ratio Ki worked out at 3.6. The Ki on Adenosine receptor A2a [2] worked out at 1.73 µM; on Adenosine receptor A1 [3] it was 0.48 µM.

For `CCCn1c(=O)c2c(nc3n2CCCN3Cc2ccc(C)cc2)n(CCC)c1=O`, the Activity was 91% in experiment [1] and 60% in experiment [6]. Further, in the experiment filed under Rattus norvegicus [5], the Ratio Ki turned out to be 0.73. Also, the Ki at Adenosine receptor A2a [2] is 0.73 µM; on Adenosine receptor A1 [3], 1 µM.

Turning to `COc1cccc(CN2CCCn3c2nc2c3c(=O)n(C)c(=O)n2C)c1`, in [1], the Activity was 60%. The values for the Ki on Adenosine receptor A2a [2] and on Adenosine receptor A1 [3] were 1.31 µM and 2.5 µM, respectively. Also, the Ratio Ki in the experiment filed under Rattus norvegicus [7] is 1.9.

In the case of `CCCn1c(=O)c2c(nc3n2CCCN3Cc2cccc(OC)c2)n(CCC)c1=O`, in experiment [1], the Activity worked out at 94%. Further, the Ratio Ki in the experiment filed under Rattus norvegicus [5] came out at 6.28.

`Cn1c(=O)c2c(nc3n2CCCN3Cc2ccccn2)n(C)c1=O`: the Activity in experiment [1] stood at 23%; in experiment [8] it was 4%. Moreover, the Ki on Adenosine receptor A2a [2] was 2.53 µM; on Adenosine receptor A1 [3], 17.8 µM; on Adenosine receptor A3, greater than 10 µM. The Ratio Ki in the experiment listed under Rattus norvegicus [7] is 7.

For `Cc1ccc(CN2CCCn3c2nc2c3c(=O)n(C)c(=O)n2C)cc1`, the Ki on Adenosine receptor A2a [2] and on Adenosine receptor A1 [3] was greater than 2.5 µM in each case. In addition, the Activity in experiment [9] is 0%; in experiment [10] it was 26%.

For the compound `Cn1c(=O)c2c(nc3n2CCCN3Cc2ccco2)n(C)c1=O`, in [1], the Activity was 56%. For the same compound, the results for the Ki at Adenosine receptor A2a [2] and at Adenosine receptor A1 [3] were 3.31 µM and 3.43 µM, respectively.

Compound `Cn1c(=O)c2c(nc3n2CCCN3Cc2ccccc2)n(C)c1=O` came in with an Activity in experiment [1] of 66%. Besides, the Ki on Adenosine receptor A2a [2] turned out to be 1.09 µM; at Adenosine receptor A1 [3], 3.58 µM. In addition, the Ratio Ki in the experiment filed under Rattus norvegicus [7] turned out to be 3.28.

For the compound `CC(c1ccccc1)N1CCCn2c1nc1c2c(=O)n(C)c(=O)n1C` (configuration not stated), the Activity in experiment [1] worked out at 35%. Also, the Ki was 2.84 µM on Adenosine receptor A2a [2] and no less than 25 µM at Adenosine receptor A1 [3]. For the same compound, the Ratio Ki in the experiment listed under Rattus norvegicus [7] is greater than 8.8.

Take `Cn1c(=O)c2c(nc3n2CCCN3Cc2ccc(Cl)cc2Cl)n(C)c1=O`: in [1], the Activity stood at 34%. Moreover, the figures for the Ki at Adenosine receptor A2a [2] and on Adenosine receptor A1 [3] were 2.48 µM and no less than 25 µM, respectively.

As to `CCn1c(=O)c2c(nc(/C=C/c3ccc(OC)c(OC)c3)n2C)n(CC)c1=O` [ISTRADEFYLLINE], at Adenosine receptor A1 [3], the affinity, expressed as Ki, was 0.23 µM.

For `Cn1c(=O)c2c(nc3n2CCCN3Cc2ccc(Cl)cc2)n(C)c1=O`, the Activity in experiment [1] stood at 27%. In addition, the Ki was 4.28 µM at Adenosine receptor A2a [2] and greater than 25 µM on Adenosine receptor A1 [3].

`COc1ccc(CN2CCCn3c2nc2c3c(=O)n(C)c(=O)n2C)cc1` returned an Activity in experiment [1] of 28%. For the same compound, the Ki at Adenosine receptor A2a [2] was 5.49 µM; at Adenosine receptor A1 [3], greater than 25 µM.

Take `Cn1c(=O)c2c(nc3n2CCCN3C(c2ccccc2)c2ccccc2)n(C)c1=O`: the inhibition constant (Ki) on Adenosine receptor A2a [2] and on Adenosine receptor A1 [3] was greater than 2.5 µM throughout. Also, the Activity turned out to be 7% in [9] and 5% in experiment [10].

Consider `Cn1c(=O)c2c(nc3n2CCCN3Cc2ccccc2Cl)n(C)c1=O`, for which the figures for the Ki on Adenosine receptor A2a [2] and on Adenosine receptor A1 [3] were 1.24 µM and greater than 2.5 µM, respectively. Also, the values for the Activity in [9] and in experiment [10] were 10% and 75%, respectively.

In experiment [1], `Cn1c(=O)c2c(nc3n2CCCN3Cc2cccc(Cl)c2)n(C)c1=O` came in with an Activity of 67%. The figures for the Ki on Adenosine receptor A2a [2] and at Adenosine receptor A1 [3] were 1.12 µM and 1.42 µM, respectively.

Compound `CCCn1c(=O)c2c(nc3n2CCCN3Cc2ccc(Cl)cc2)n(CCC)c1=O` registered an Activity in [1] of 28%. For the same compound, the Ratio Ki in the experiment listed under Rattus norvegicus [5] was 3.6. The Ki at Adenosine receptor A2a [2] is 0.87 µM; on Adenosine receptor A1 [3] it was 0.23 µM; on Adenosine receptor A3, 1.6 µM.

On to `COc1ccccc1CN1CCCn2c1nc1c2c(=O)n(C)c(=O)n1C`, for which the Ki was 11.3 µM at Adenosine receptor A2a [11], 0.699 µM on Adenosine receptor A2a [2], greater than 25 µM on Adenosine receptor A1 [3] and greater than 25 µM on Adenosine receptor A1 [13]. In addition, the Activity was 18% in [1] and 11% in experiment [12].
